Assay [1] addresses T1, CgFUT2 (Magallana gigas, UniProt A0AA95ZAK5).
T1 construct: crude cell lysate used (purification failed)
T1 sequence (A0AA95ZAK5 1-350): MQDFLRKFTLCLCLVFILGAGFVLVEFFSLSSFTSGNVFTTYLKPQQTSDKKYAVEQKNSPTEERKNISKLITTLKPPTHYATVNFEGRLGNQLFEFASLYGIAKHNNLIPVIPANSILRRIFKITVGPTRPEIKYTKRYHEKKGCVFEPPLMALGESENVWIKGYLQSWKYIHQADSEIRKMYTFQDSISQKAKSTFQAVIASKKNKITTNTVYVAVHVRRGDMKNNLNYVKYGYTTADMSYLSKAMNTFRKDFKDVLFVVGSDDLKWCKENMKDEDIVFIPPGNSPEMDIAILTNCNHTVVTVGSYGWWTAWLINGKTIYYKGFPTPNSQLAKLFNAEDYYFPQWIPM
The assay is described as follows: fucosyl transfer, HPLC with UV detection; product by NMR. It counts as biochemical. Particulars: acceptor; 3 mM GDP-Fuc, 20 mM MnCl2, MES pH 7.0, 37 °C; control Sf9 lysate without enzyme as blank.

The target in assay [2] is T1, CgFUT2. The assay is described as follows: fucosyl transfer to pNP-lactose, HPLC with UV detection. Type of assay: biochemical. The settings on record: 0.25 mM GDP; 3 mM GDP-Fuc, 0.5 mM pNP-β-lactose, 20 mM MnCl2, 2 mM ATP, MES pH 7.0, 37 °C; Sf9 lysate.

As to `O=[N+]([O-])c1ccc(O[C@@H]2O[C@H](CO)[C@@H](O[C@@H]3O[C@H](CO)[C@H](O)[C@H](O)[C@H]3O)[C@H](O)[C@H]2O)cc1` [pNP-β-lactose], on CgFUT2 [1], the “fucosyl transfer, HPLC with UV detection; product by NMR” value was “Sf9 cell lysate expressing CgFUT2 and a control Sf9 cell lysate was assessed using pNP-β-lactose”.

As to `Nc1nc2c(ncn2[C@@H]2O[C@H](COP(=O)(O)OP(=O)(O)O)[C@@H](O)[C@H]2O)c(=O)[nH]1` [GDP], the “% decrease of activity at 0.25 mM” value at CgFUT2 [2] amounted to 30%.
